Measurements from patent US20200375999A1, “PHARMACEUTICAL COMBINATIONS OF EGFR INHIBITORS AND METHODS OF USE THEREOF” (DANA-FARBER CANCER INSTITUTE, INC., priority 2018, published 2020).
Read-outs that look alike come from different tables or passages of the source.

How the values were obtained:
[1] = molecular target: T1, EGFR T790M/L858R Ba/F3 cell line (Homo sapiens, UniProt P00533, T790M/L858R, cells depend on it); assay: Ba/F3 cell proliferation (MTS assay), EGFR T790M/L858R; type: cell-based, murine; settings: for Activity (% cetuximab); inhibition of proliferation: compound at 1 μM in the presence of 1 μg/mL cetuximab; for Activity (% cetuximab); inhibition of proliferation / Activity (% DMSO control); inhibition of proliferation: EGFR T790M/L858R Ba/F3; for Activity (% DMSO control); inhibition of proliferation: compound at 1 μM
T1 construct: "The constructs were shuttled into the retroviral vector JP1540 using the BD Creator™ System (BD Biosciences)
T1 sequence (P00533 whole entry T790M/L858R): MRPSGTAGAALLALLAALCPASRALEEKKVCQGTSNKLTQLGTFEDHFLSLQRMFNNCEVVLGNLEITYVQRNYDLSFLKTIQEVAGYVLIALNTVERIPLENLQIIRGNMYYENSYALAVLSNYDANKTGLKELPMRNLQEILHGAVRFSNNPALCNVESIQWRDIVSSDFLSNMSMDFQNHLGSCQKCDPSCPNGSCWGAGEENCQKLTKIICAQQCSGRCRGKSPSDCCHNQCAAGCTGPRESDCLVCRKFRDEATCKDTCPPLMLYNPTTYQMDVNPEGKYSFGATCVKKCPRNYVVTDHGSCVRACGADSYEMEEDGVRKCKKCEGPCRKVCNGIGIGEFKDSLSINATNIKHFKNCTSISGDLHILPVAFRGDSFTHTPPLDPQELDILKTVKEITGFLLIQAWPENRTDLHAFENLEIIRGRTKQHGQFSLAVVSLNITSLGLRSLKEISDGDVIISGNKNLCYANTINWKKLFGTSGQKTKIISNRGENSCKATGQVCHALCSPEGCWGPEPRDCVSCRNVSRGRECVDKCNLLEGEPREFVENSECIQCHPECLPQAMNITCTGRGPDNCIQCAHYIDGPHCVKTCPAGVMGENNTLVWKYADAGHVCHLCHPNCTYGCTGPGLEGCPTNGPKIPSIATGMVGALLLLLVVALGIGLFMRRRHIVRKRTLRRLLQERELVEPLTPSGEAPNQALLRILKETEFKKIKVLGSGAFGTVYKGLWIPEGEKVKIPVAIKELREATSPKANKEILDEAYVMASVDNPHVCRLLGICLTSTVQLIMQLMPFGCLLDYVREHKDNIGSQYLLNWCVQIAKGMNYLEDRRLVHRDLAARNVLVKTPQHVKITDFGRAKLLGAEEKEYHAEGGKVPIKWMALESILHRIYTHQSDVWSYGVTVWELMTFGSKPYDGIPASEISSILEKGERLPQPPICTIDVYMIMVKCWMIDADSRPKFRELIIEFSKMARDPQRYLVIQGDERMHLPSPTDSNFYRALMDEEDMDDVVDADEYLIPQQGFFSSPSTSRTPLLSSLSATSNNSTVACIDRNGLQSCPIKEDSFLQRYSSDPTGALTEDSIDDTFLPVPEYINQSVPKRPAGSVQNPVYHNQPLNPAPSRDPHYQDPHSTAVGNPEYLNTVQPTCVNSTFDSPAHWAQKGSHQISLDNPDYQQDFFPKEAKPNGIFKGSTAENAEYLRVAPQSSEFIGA
Procedure: All cell lines were maintained in RPM 1640 (Cellgro; Mediatech Inc., Herndon, Calif.) supplemented with 10% FBS 100 units/mL penicillin, 100 units/mL streptomycin, and 2 mM glutamine. […] The EGFR 1941R mutation was introduced via site directed mutagenesis using the Quick Change Site-Directed Mutagenesis kit (Stratagene: La Jolla, Calif.) according to the manufacturer's instructions. All constructs were confirmed by DNA sequencing. The constructs were shuttled into the retroviral vector JP1540 using the BD Creator™ System (BD Biosciences). Ba/F3 cells were infected with retrovirus and according to standard protocols, as described previously (Zhou 2009). Stable clones were obtained by selection in puromycin (2 μg/ml).
Growth and inhibition of growth was assessed by MTS assay and was performed according to previously established methods (Zhou 2009). The MTS assay is a colorimetric method for determining the number of viable cells that is based on the bioreduction of MTS by cells to a formazan product that is soluble in cell culture medium and can be detected spectrophotometrically. […] All experimental points were set up in six wells and all experiments were repeated at least three times. […] The curves were fitted using anon-linear regression model with a sigmoidal dose response.

[2] = molecular target: T2, recombinant EGFR T790M/L858R kinase (Homo sapiens, UniProt P00533, L858R/T790M); assay: HTRF-based EGFR biochemical assay
T2 construct: Constructs spanning residues 696-1022 of the human EGFR; GST (cleaved yes); made in house; host or cells: Sf9 insect cells
T2 sequence (P00533 696-1022 T790M/L858R): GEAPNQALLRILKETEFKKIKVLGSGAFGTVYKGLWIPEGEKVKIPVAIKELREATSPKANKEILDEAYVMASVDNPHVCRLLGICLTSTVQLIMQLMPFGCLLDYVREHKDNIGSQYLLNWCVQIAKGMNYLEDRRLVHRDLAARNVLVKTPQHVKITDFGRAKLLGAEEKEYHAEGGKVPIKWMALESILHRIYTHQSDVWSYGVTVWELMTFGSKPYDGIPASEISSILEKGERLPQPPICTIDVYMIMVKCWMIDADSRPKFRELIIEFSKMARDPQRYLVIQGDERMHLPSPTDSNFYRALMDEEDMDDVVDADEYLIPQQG
Procedure: EGFR kinase proteins were purified by glutathione-affinity chromatography followed by size-exclusion chromatography after cleavage with TEV or thrombin to remove the GST fusion partner following established procedures. (Yun 2008; Yun 2007).
EGFR biochemical assays were carried out using a homogeneous time-resolved fluorescence (HTRF) assay as described previously. The reaction mixtures contained 1 μM biotin-Lck-peptide substrate, wild type or mutant EGFR enzyme in reaction buffer (50 mM HEPES pH 7.1, 10 mM MgCl2, 0.01% BSA. 1 mM TCEP and 0.1 mM Na3VO4) at a final volume of 10 μL. […] All reactions were carried out at room temperature in white ProxiPlate™ 384-well Plus plates (PerkinElmer) and were quenched with 5 μL of 0.2 M EDTA at 60 min. Five μL per well of the detection reagent containing 2.5 ng PT66K (Cis-bio) and 0.05 μg SAXL (Prozyme) were added, and the plates were then incubated at room temperature for 1 hour and read with an EnVision plate reader.

[3] = system: EGFR L858R/T790M/C797S Ba/F3 cell line; assay: Ba/F3 cell proliferation (MTS assay), EGFR L858R/T790M/C797S; type: cell-based, murine; settings: for Activity (% cetuximab); inhibition of proliferation: compound at 1 μM in the presence of 1 μg/mL cetuximab, EGFR L858R/T790M/C797S; for Activity (% DMSO control); inhibition of proliferation: compound at 1 μM, EGFR L858R/T790M/C797S Ba/F3
Procedure: The EGFR mutant L858R, Del E746_A750, L858R/T790M, DelE746_A750/T790M, L858R/T790M/C797S and Del/T790M/C797S Ba/F3 cells were previously described (Zhou et al., Nature 462, (2009), 1070-1074). All cell lines were maintained in RPM 1640 (Cellgro; Mediatech Inc., Herndon, Calif.) supplemented with 10% FBS 100 units/mL penicillin, 100 units/mL streptomycin, and 2 mM glutamine. L858R cells were maintained in ACL-4 media (Invitrogen, Carlsbad, Calif.) supplemented with 5% FBS, 100 units/mL penicillin, 100 units/mL streptomycin, and 2 mM glutamine. The EGFR 1941R mutation was introduced via site directed mutagenesis using the Quick Change Site-Directed Mutagenesis kit (Stratagene: La Jolla, Calif.) according to the manufacturer's instructions. All constructs were confirmed by DNA sequencing. The constructs were shuttled into the retroviral vector JP1540 using the BD Creator™ System (BD Biosciences). Ba/F3 cells were infected with retrovirus and according to standard protocols, as described previously (Zhou 2009). Stable clones were obtained by selection in puromycin (2 μg/ml).
Growth and inhibition of growth was assessed by MTS assay and was performed according to previously established methods (Zhou 2009). The MTS assay is a colorimetric method for determining the number of viable cells that is based on the bioreduction of MTS by cells to a formazan product that is soluble in cell culture medium and can be detected spectrophotometrically. Ba/F3 cells of different EGFR genotypes were exposed to treatment and the number of cells used per experiment determined empirically and has been previously established (Zhou 2009). All experimental points were set up in six wells and all experiments were repeated at least three times. […] The curves were fitted using anon-linear regression model with a sigmoidal dose response.

[4] = absence of cetuximab, read-out: Ba/F3 cellular activity (EC50) T790M/L858R
[5] = read-out: Ba/F3 cellular activity (EC50) T790M/L858R + Cetuximab (1 μg/mL), presence of 1 μg/mL cetuximab

SMILES	EC50 [1, 4] [nM]	Activity (% cetuximab); inhibition of proliferation [1]	Activity (% DMSO control); inhibition of proliferation [1]	EC50 [1, 5] [nM]	IC50 [2] [nM]	Activity (% cetuximab); inhibition of proliferation [3]	Activity (% DMSO control); inhibition of proliferation [3]
O=C1c2cc(-c3ccc(N4CCNCC4)cc3)ccc2Nc2ccc(F)cc2N1c1ccccc1 [Compound I-5]	≥ 750	D (75 ≤ D)	D (75 ≤ D)	≥ 750	≥ 750	D (75 ≤ D)	D (75 ≤ D)
CN1CCC(n2cc(-c3ccc4c(c3)C(=O)N(Cc3ccccc3)c3cc(F)ccc3N4)cn2)CC1 [Compound I-3]	≥ 750	B (25 ≤ B < 50)	D (75 ≤ D)	< 250	< 250	C (50 ≤ C < 75)	D (75 ≤ D)
O=C1c2cc(-c3ccc(-c4cn[nH]c4)cc3)ccc2Nc2ccc(F)cc2N1Cc1ccccc1 [Compound I-4]	≥ 750	A (0 ≤ A < 25)	D (75 ≤ D)	250 to 500	< 250	A (0 ≤ A < 25)	D (75 ≤ D)
O=C1c2cc(-c3ccc4[nH]ccc4c3)ccc2Nc2ccc(F)cc2N1c1ccccc1 [Compound I-8]	≥ 750	D (75 ≤ D)	D (75 ≤ D)	≥ 750	≥ 750	D (75 ≤ D)	D (75 ≤ D)
